Among the test systems are HOP-92; OVCAR-3; Malme-3M; UO-31; HOP-62; SW-620; COLO 205; HT-29; TK-10; SN12C; NCI-H23; SF-539; OVCAR-5; NCI-H522; RXF 393.
Common to all, as to assay: growth of human tumour cells (NCI), 48 h

Molecules are shown by their SMILES.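 Step 1: Grow cells in 96-well plates. Step 2: Expose to compound for 48 hours at 5 concentrations. Step 3: Interpolate endpoints linearly; if unreached, use highest concentration. Abbreviation: GI50, concentration required for 50% inhibition of growth.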 Calls of active or inactive are those of the source. Rule as the data show it: active = GI50 up to about 1.1 µM and inactive = higher.

For `COc1cc2c(c(OC)c1OC)-c1ccc(SC)c(=O)cc1[C@@H](NCc1ccccc1[N+](=O)[O-])CC2`, the GI50 is 0.0257 µM (active) with HOP-92; 0.00428 µM (active) with OVCAR-3; 0.00817 µM (active) in the assay with Malme-3M; 0.01 µM (active) in the assay on UO-31; 0.0174 µM (active) in the assay on HOP-62; 0.00333 µM (active) in the assay with SW-620. Moreover, the GI50 in the assay with COLO 205 was 0.0082 µM (active); with HT-29 it was 0.00391 µM (active); in the assay with TK-10, 0.061 µM (active); in the assay with SN12C, 0.0209 µM (active); in the assay with NCI-H23, 0.00429 µM (active); with SF-539, 0.00525 µM (active). Besides, the results for the GI50 with OVCAR-5, with NCI-H522 and with RXF 393 were 0.0216 µM (active), 0.011 µM (active) and 0.00286 µM (active), respectively.
As to `O=[N+]([O-])c1cc(C(F)(F)F)cc([N+](=O)[O-])c1CCl`, the GI50 is 4.9 µM (inactive) with HOP-92; 5.24 µM (inactive) in the assay on OVCAR-3; 3.23 µM (inactive) in the assay with Malme-3M; 7.87 µM (inactive) in the assay with UO-31; 16.1 µM (inactive) with HOP-62; 0.429 µM (active) with SW-620. In addition, the GI50 is 2.13 µM (inactive) with COLO 205; 2.14 µM (inactive) in the assay on HT-29; 8.53 µM (inactive) in the assay with TK-10; 1.55 µM (inactive) in the assay with SN12C; 1.69 µM (inactive) with NCI-H23; 4.81 µM (inactive) in the assay on SF-539. Moreover, the GI50 in the assay on OVCAR-5 is 5.3 µM (inactive); in the assay on NCI-H522, 0.328 µM (active); in the assay with RXF 393, 1.73 µM (inactive).
For the compound `O=C1OC(CC(=O)c2ccc(F)cc2)C(Cl)=C1Cl` (centres undefined), the GI50 in the assay with HOP-92 is 20 µM (inactive); in the assay on OVCAR-3 it was 22.1 µM (inactive); in the assay with Malme-3M it was 17.2 µM (inactive); with UO-31, 22.3 µM (inactive); in the assay with HOP-62, 32.1 µM (inactive); in the assay on SW-620, 23.3 µM (inactive). Moreover, the GI50 is 18.2 µM (inactive) with HT-29; 40.2 µM (inactive) in the assay on TK-10; 19.4 µM (inactive) in the assay with SN12C; 29.6 µM (inactive) with NCI-H23; 19 µM (inactive) in the assay with SF-539; 24.5 µM (inactive) in the assay with OVCAR-5. For the same compound, the GI50 with NCI-H522 is 18.9 µM (inactive); with RXF 393, 21.6 µM (inactive).
Regarding `O=C(CC(C(=O)c1ccsc1)c1cccs1)c1cccs1` (centres undefined), the GI50 in the assay on HOP-92 is > 100 µM (inactive); with OVCAR-3 it was 38.7 µM (inactive); with Malme-3M, > 100 µM (inactive); with UO-31, 28.1 µM (inactive); in the assay on HOP-62, > 100 µM (inactive); in the assay with SW-620, > 100 µM (inactive). Besides, the GI50 with COLO 205 is 94.8 µM (inactive); with HT-29, 82.2 µM (inactive); with TK-10, > 100 µM (inactive); in the assay on SN12C, 65.8 µM (inactive); in the assay on NCI-H23, > 100 µM (inactive); in the assay with SF-539, > 100 µM (inactive). Besides, the GI50 with OVCAR-5 was > 100 µM (inactive); in the assay with NCI-H522 it was 33.4 µM (inactive); in the assay with RXF 393, > 100 µM (inactive).
Regarding `CC1CCC2(OC1)OC1CC3C4CCC5CC(O)CCC5(C)C4CC(=O)OC3(C)C1C2C` (centres undefined), the GI50 with HOP-92, with OVCAR-3, in the assay on Malme-3M, in the assay on UO-31, in the assay on HOP-62 and in the assay on SW-620 was > 100 µM (inactive) in each case. The GI50 in the assay with COLO 205, with HT-29, in the assay on TK-10, in the assay with SN12C, in the assay on NCI-H23 and in the assay with SF-539 was > 100 µM (inactive) throughout. Also, the GI50 in the assay on OVCAR-5, in the assay on NCI-H522 and with RXF 393 was > 100 µM (inactive) each time.

The values are drawn from ChEMBL document CHEMBL1201862, “PubChem BioAssay data set” (2004).
